Test results taken from patent USRE40086E1, “Method for treating bacterial infection with novel 7-substituted-9-substituted amino 6-demethyl-6-deoxytetracyclines” (Wyeth Holdings Corporation, priority 1991, dated 2008).

What was measured:
[1] = system: S. aureus UBMS 88-5 (tetM); assay: MIC, agar dilution; type: cell-based; settings: S. aureus UBMS 88-5 TetM; Table IA; unit assumed
[2] = system: S. aureus UBMS 88-4 (Sensitive); assay: MIC, agar dilution; type: cell-based; settings: S. aureus UBMS 88-4; Table IA; unit assumed
[3] = system: S. aureus UBMS 90-1 (tetM); assay: MIC, agar dilution; type: cell-based; settings: S. aureus UBMS 90-1 TetM; Table IA; unit assumed
[4] = system: S. aureus UBMS 90-2 (tetM); assay: MIC, agar dilution; type: cell-based; settings: S. aureus UBMS 90-2 TetM; Table IA; unit assumed
[5] = system: S. aureus UBMS 90-3 (Sensitive); assay: MIC, agar dilution; type: cell-based; settings: S. aureus UBMS 90-3; Table IA; unit assumed
[6] = system: S. aureus UBMS 88-7 (tetK); assay: MIC, agar dilution; type: cell-based; settings: S. aureus UBMS 88-7 TetK; Table IA; unit assumed
[7] = system: S. aureus IVES 2943 (meth. resistant); assay: MIC, agar dilution; type: cell-based; settings: S. aureus IVES 2943; Table IA; unit assumed
[8] = system: S. aureus IVES 1983 (meth. resistant); assay: MIC, agar dilution; type: cell-based; settings: S. aureus IVES 1983; Table IA; unit assumed
[9] = system: S. aureus ATCC 29213 (Sensitive); assay: MIC, agar dilution; type: cell-based; settings: S. aureus ATCC 29213; Table IA; unit assumed
[10] = system: S. aureus Smith (Sensitive); assay: MIC, agar dilution; type: cell-based; settings: S. aureus SMITH (MP); Table IA; unit assumed
[11] = system: S. haemolyticus AVAH 88-3; assay: MIC, agar dilution; type: cell-based; settings: S. hemolyticus AVHAH 88-3; Table IA; unit assumed
[12] = system: E. faecalis 12201; assay: MIC, agar dilution; type: cell-based; settings: Enterococcus 12201; Table IA; unit assumed
[13] = system: E. faecalis ATCC 29212; assay: MIC, agar dilution; type: cell-based; settings: E. faecalis ATCC 29212; Table IA; unit assumed
[14] = system: E. coli UBMS 88-1 (tetB); assay: MIC, agar dilution; type: cell-based; settings: E. coli UBMS 88-1 TetB; Table IA; unit assumed
[15] = system: E. coli UBMS 89-1 (tetM); assay: MIC, agar dilution; type: cell-based; settings: E. coli UBMS 89-1 TetM; Table IA; unit assumed
[16] = system: E. coli UBMS 89-2 (Sensitive); assay: MIC, agar dilution; type: cell-based; settings: E. coli UBMS 89-2 Tet Sens.; Table IA; unit assumed
[17] = system: E. coli ATCC 25922; assay: MIC, agar dilution; type: cell-based; settings: E. coli ATCC 25922; Table IA; unit assumed
[18] = system: E. coli UBMS 90-4 (tetM); assay: MIC, agar dilution; type: cell-based; settings: E. coli UBMS 90-4 TetM; Table IA; unit assumed
[19] = system: E. coli J3272 Tet sens.; assay: MIC, agar dilution (Table IA); type: cell-based; settings: unit assumed
[20] = system: E. coli MC4100 TetB; assay: MIC, agar dilution (Table IA); type: cell-based; settings: unit assumed
[21] = system: E. coli PRP1 TetA; assay: MIC, agar dilution (Table IA); type: cell-based; settings: unit assumed
[22] = system: E. coli J3272 TetC; assay: MIC, agar dilution (Table IA); type: cell-based; settings: unit assumed
[23] = system: E. coli J2175; assay: MIC, agar dilution (Table IA); type: cell-based; settings: unit assumed
[24] = system: E. coli BAJ9003; assay: MIC, agar dilution (Table IA); type: cell-based; settings: unit assumed
[25] = system: E. coli UBMS 90-5; assay: MIC, agar dilution (Table IA); type: cell-based; settings: unit assumed
[26] = system: E. coli #311 (MP); assay: MIC, agar dilution (Table IA); type: cell-based; settings: unit assumed
[27] = system: E. coli J3272 TetD; assay: MIC, agar dilution (Table IA); type: cell-based; settings: unit assumed
[28] = system: S. mariescens FDOR 8733; assay: MIC, agar dilution (Table IA); type: cell-based; settings: unit assumed
[29] = system: X. maltophilia NEMC 87210; assay: MIC, agar dilution (Table IA); type: cell-based; settings: unit assumed
[30] = system: Ps. acruginosa ATCC 27853; assay: MIC, agar dilution (Table IA); type: cell-based; settings: unit assumed
[31] = system: S. aureus NEMC 8769/89-4; assay: MIC, agar dilution (Table IA); type: cell-based; settings: unit assumed
[32] = system: S. aureus ROSE (MP); assay: MIC, agar dilution (Table IA); type: cell-based; settings: unit assumed
[33] = system: Wild Type S30 extract, E. coli strain MRE600 (tetracycline sensitive); assay: E. coli in vitro transcription and protein translation, 35S-methionine incorporation (Table VIII)
[34] = system: TetM S30 extract, derivative of E. coli MRE600 containing the tetM determinant; assay: as above
[35] = system: S. aureus SMITH (sens); assay: In vivo antibacterial evaluation, acute lethal infection in mice; settings: Oral
Description: In Vivo Antibacterial Evaluation (Table VII)

Structure (SMILES) | Antibacterial activity (MIC) [1] [µg/mL] | Antibacterial activity (MIC) [2] [µg/mL] | Antibacterial activity (MIC) [3] [µg/mL] | Antibacterial activity (MIC) [4] [µg/mL] | Antibacterial activity (MIC) [5] [µg/mL] | Antibacterial activity (MIC) [6] [µg/mL] | Antibacterial activity (MIC) [7] [µg/mL] | Antibacterial activity (MIC) [8] [µg/mL] | Antibacterial activity (MIC) [9] [µg/mL] | Antibacterial activity (MIC) [10] [µg/mL] | Antibacterial activity (MIC) [11] [µg/mL] | Antibacterial activity (MIC) [12] [µg/mL] | Antibacterial activity (MIC) [13] [µg/mL] | Antibacterial activity (MIC) [14] [µg/mL] | Antibacterial activity (MIC) [15] [µg/mL] | Antibacterial activity (MIC) [16] [µg/mL] | Antibacterial activity (MIC) [17] [µg/mL] | Antibacterial activity (MIC) [18] [µg/mL] | Antibacterial activity (MIC) [19] [µg/mL] | Antibacterial activity (MIC) [20] [µg/mL] | other results
CCNCC(=O)Nc1cc(N(C)C)c2c(c1O)C(=O)C1=C(O)[C@]3(O)C(=O)C(C(N)=O)=C(O)[C@@H](N(C)C)C3CC1C2.Cl.Cl (stereo partly shown) [OO] | 1 | 1 | 1 | 0.5 | 0.5 | 8 | 8 | 8 | 1 | 0.5 | 1 | 0.25 | 0.25 | 1 | 1 | 1 | 1 | 0.5 | 1 | 1 | Antibacterial activity (MIC) [21]: 2 µg/mL; Antibacterial activity (MIC) [22]: 2 µg/mL; Antibacterial activity (MIC) [23]: 1 µg/mL; Antibacterial activity (MIC) [24]: 0.12 µg/mL; Antibacterial activity (MIC) [25]: 1 µg/mL; Antibacterial activity (MIC) [26]: 1 µg/mL; Antibacterial activity (MIC) [27]: 0.5 µg/mL; Antibacterial activity (MIC) [28]: 8 µg/mL; Antibacterial activity (MIC) [29]: 2 µg/mL; Antibacterial activity (MIC) [30]: 16 µg/mL; Antibacterial activity (MIC) [31]: 0.5 µg/mL; Antibacterial activity (MIC) [32]: 8 µg/mL; % INHIBITION Wild Type S30 ([33]; 0.06 mg/ml): 94%; % INHIBITION Wild Type S30 ([33]; 0.2 mg/ml): 97%; % INHIBITION Wild Type S30 ([33]; 1.0 mg/ml): 99%; % INHIBITION TetM S30 ([34]; 0.06 mg/ml): 87%; % INHIBITION TetM S30 ([34]; 0.2 mg/ml): 95%; % INHIBITION TetM S30 ([34]; 1.0 mg/ml): 99%
CCN(CC)CC(=O)Nc1cc(N(C)C)c2c(c1O)C(=O)C1=C(O)[C@]3(O)C(=O)C(C(N)=O)=C(O)[C@@H](N(C)C)C3CC1C2.Cl.Cl (stereo partly drawn) [RR, [4S-(4alpha,12aalpha))-9-([(Diethylamino)acetyl)amino]-4,7-Bis(dimethylamino)-1,4,4a,5,5a,6,11,12a-octahydro-3,10,12,12a-tetrahydroxy-1,11-dioxo-2-naphthacenecarboxamide dihydrochloride] | 0.25 | 0.25 | 0.25 | 0.25 | 0.25 | 0.5 | 1 | 0.25 | 0.12 | 0.25 | 0.5 | 0.12 | 0.12 | 1 | 0.25 | 1 | 0.5 | 0.5 | 1 | 1 | ED50 [35]: 8 to 16 mg/kg; Antibacterial activity (MIC) [21]: 2 µg/mL; Antibacterial activity (MIC) [22]: 1 µg/mL; Antibacterial activity (MIC) [23]: 1 µg/mL; Antibacterial activity (MIC) [24]: 0.06 µg/mL; Antibacterial activity (MIC) [25]: 1 µg/mL; Antibacterial activity (MIC) [26]: 0.5 µg/mL; Antibacterial activity (MIC) [27]: 0.25 µg/mL; Antibacterial activity (MIC) [28]: 4 µg/mL; Antibacterial activity (MIC) [29]: 0.25 µg/mL; Antibacterial activity (MIC) [30]: 32 µg/mL; Antibacterial activity (MIC) [31]: 0.06 µg/mL; Antibacterial activity (MIC) [32]: 1 µg/mL; % INHIBITION Wild Type S30 ([33]; 0.06 mg/ml): 93%; % INHIBITION Wild Type S30 ([33]; 0.2 mg/ml): 97%; % INHIBITION Wild Type S30 ([33]; 1.0 mg/ml): 99%; % INHIBITION TetM S30 ([34]; 0.06 mg/ml): 90%; % INHIBITION TetM S30 ([34]; 0.2 mg/ml): 97%; % INHIBITION TetM S30 ([34]; 1.0 mg/ml): 99%
CN(C)c1cc(NC(=O)Cn2ccnc2)c(O)c2c1CC1CC3[C@H](N(C)C)C(O)=C(C(N)=O)C(=O)[C@@]3(O)C(O)=C1C2=O.Cl.Cl (stereo partly drawn) [VV, [7S-(7alpha,10aalpha)]-N-[9-(Aminocarbonyl)-4,7-bis(dimethylamino)-5,5a,6,6a,7,10,10a,12-octahydro-1,8,10a,11-tetrahydroxy-10,12-dioxo-2-naphthacenyl]-1H-imidazole-1-acetamide dihydrochloride] | 32 | 8 | 32 | 16 | 4 | 32 | > 32 | > 32 | 8 | 4 | > 32 | 4 | 4 | > 32 | > 32 | > 32 | > 32 | > 32 | > 32 | > 32 | Antibacterial activity (MIC) [21]: > 32 µg/mL; Antibacterial activity (MIC) [22]: > 32 µg/mL; Antibacterial activity (MIC) [23]: > 32 µg/mL; Antibacterial activity (MIC) [24]: 1 µg/mL; Antibacterial activity (MIC) [25]: > 32 µg/mL; Antibacterial activity (MIC) [26]: > 32 µg/mL; Antibacterial activity (MIC) [27]: > 32 µg/mL; Antibacterial activity (MIC) [28]: > 32 µg/mL; Antibacterial activity (MIC) [29]: > 32 µg/mL; Antibacterial activity (MIC) [30]: > 32 µg/mL; Antibacterial activity (MIC) [31]: 4 µg/mL; Antibacterial activity (MIC) [32]: > 32 µg/mL; % INHIBITION Wild Type S30 ([33]; 0.06 mg/ml): 91%; % INHIBITION Wild Type S30 ([33]; 0.2 mg/ml): 93%; % INHIBITION Wild Type S30 ([33]; 1.0 mg/ml): 99%; % INHIBITION TetM S30 ([34]; 0.06 mg/ml): 79%; % INHIBITION TetM S30 ([34]; 0.2 mg/ml): 92%; % INHIBITION TetM S30 ([34]; 1.0 mg/ml): 98%
